Results taken from US11446269B2, “Methods of reducing or preventing oxidation of small dense LDL or membrane polyunsaturated fatty acids” (Amarin Pharmaceuticals Ireland Limited, priority 2014, dated 2022).

Columns and labels:
[1] = tested on: sdLDL; test: Copper-induced sdLDL oxidation (Example 12); type: biochemical, human; conditions: 10.0 μM, copper-induced oxidation 1 hour, vs vehicle
[2] = Glucose-induced membrane lipid peroxidation (LOOH, CHOD-iodide assay) in DLPC/cholesterol multilamellar vesicles (Example 4); type: biochemical
Protocol: Vitamin E (α-tocopherol) was also purchased from Sigma-Aldrich and prepared in ethanol at 1.0 mM (ε=3.06×10^4 M^−1 cm^−1 at 294 nm) just prior to experimental use. […] All test compounds were further diluted in ethanol or aqueous buffer as needed. Glucose was prepared in saline buffer (0.5 mM HEPES, 154 mM NaCl, pH 7.3) at 11.0 mM (200 mg/dL). CHOD-iodide color reagent (stock) was prepared, with slight modification, as described by from El-Saadani et al. (J. […] Samples were shell-dried under nitrogen gas and placed under vacuum for 1 h to remove residual solvent. […] Lipid suspensions were then vortexed for 3 min at ambient temperature to form MLVs. All MLV samples were subjected to time-dependent autoxidation by incubating at 37° C. in an uncovered, shaking water bath. This method allows lipid peroxidation to occur gradually without requiring the use of exogenous initiators. Small aliquots (5-100 μL) of each sample were removed, immediately following MLV preparation (0 hour) and after exposing samples to oxidative conditions for 72 or 96 hour, and combined with 1.0 mL of activated CHOD-iodide color reagent. Aliquot volume was reduced with each successive time point to ensure that spectrophotometric readings were within the optimal adsorption range. Test samples were covered and incubated in darkness at room temperature for at least 4 hr. Sample absorbances were then measured against a CHOD blank at 365 nm using a Beckman DU-640 spectrophotometer. The CHOD colorimetric assay is based on the oxidation of iodide (I^−) by lipid hydroperoxide (LOOH) to form triiodide (I3^−), the quantity of which is directly proportional to the amount of LOOH present in the lipid sample. The molar absorptivity (c) of I3^− is 2.46×10^4 M^−1 cm^−1 at 365 nm. […] The concentration of glucose selected was consistent with previous experimental studies of hyperglycemia under controlled laboratory conditions or observed in well-defined animal models of Type II diabetes following a glucose challenge. […] Values in FIG. 1 are mean±S.D. (N=6). EPA inhibited the peroxidative effects of glucose by 88% and 86% at 72 and 96 hours, respectively, which was highly significant (p<0.001) as compared to glucose treatment alone. […] Overall ANOVA—0 hour data: p=0.6655, F=0.4185; 72 hour data: p<0.0001, F=428.72; 96 hour data: p<0.0001, F=322.01.

[3] = LOOH formation in glucose-treated model membranes, EPA versus EA and ETE (Example 5); type: biochemical; conditions: 72 or 96 hr autoxidation
Protocol: An experiment was conducted to compare the ability of EPA to prevent lipid hydroperoxide formation in model membranes treated with glucose to two other 20-carbon fatty acids: eicosanoic acid (“EA,” also referred to as arachidic acid, C20:0) and eicosatrienoic acid (“ETE,” C20:3, n-3). All MLV samples were subjected to time-dependent autoxidation by incubating at 37° C. in an uncovered, shaking water bath. This method allows lipid peroxidation to occur gradually without requiring the use of exogenous initiators. Small aliquots (5-100 μL) of each sample were removed, immediately following MLV preparation (0 hr) and after exposing samples to oxidative conditions for 72 or 96 hr, and combined with 1.0 mL of activated CHOD-iodide color reagent. Aliquot volume was reduced with each successive time point to ensure that spectrophotometric readings were within the optimal adsorption range. Test samples were covered and incubated in darkness at room temperature for at least 4 hr. Sample absorbances were then measured against a CHOD blank at 365 nm using a Beckman DU-640 spectrophotometer. The CHOD colorimetric assay is based on the oxidation of iodide (I^−) by lipid hydroperoxide (LOOH) to form triiodide (I3^−), the quantity of which is directly proportional to the amount of LOOH present in the lipid sample. The molar absorptivity (ε) of I3^− is 2.46×10^4 M^−1 cm^−1 at 365 nm.

[4] = tested on: HUVECs; test: NO and ONOO^− release from HUVECs pretreated with agents, then oxLDL (Example 11, objective 1); type: cell-based, human; conditions: agents 10 μM, 30 min pretreatment, then oxLDL 11 mg/dL up to 3 hr
Protocol: Human umbilical vein endothelial cells (HUVECs) were obtained from healthy, female donors and isolated into primary, proliferating cell cultures (Clonetics, San Diego, Calif.). […] The confluent cells (4 to 5×10^5 cells/35 mm dish) were plated with minimum essential medium containing 3 mM L-arginine and 0.1 mM BH4 [(6R)-5,6,7,8-tetrahydrobiopterin]. Before experimental use, the cells (from second or third passage) were rinsed twice with Tyrode-HEPES buffer with 1.8 mM CaCl2.
Venous blood was collected from healthy volunteers into vacutainer tubes containing sodium EDTA. […] The LDL subfraction was retained for additional experimentation. Plasma and lipoprotein fractions were maintained at 4° C. and protected from excessive exposure to light. Prior to oxidation experiments, EDTA was removed from the lipoprotein fraction using PD-10 desalting columns (GE Healthcare, Piscataway N.J.). After equilibration of the column with phosphate buffered saline (PBS), 2.5 mL of the lipoprotein fraction was loaded on the column and the flow-through discarded. The lipoprotein was then eluted with 3 mL of PBS. The LDL fractions were further diluted with PBS to obtain a 100 μg/mL apoB100 concentration.
LDL underwent oxidation following the addition of 10 μM CuSO4. To measure oxidation, 100 μL aliquots were removed and combined with 1.0 mL thiobarbituric acid (0.5%), 10 μL trichloroacetic acid (5%), 10 μL BHT (5 mg/mL in methanol), and 10 μL EDTA (5 mM). […] Sample TBARS concentrations were determined spectrophotometrically by measuring sample absorbances against a standard curve derived from the hydrolysis of 1,1,3,3-tetramethoxypropane.
Concurrent measurements of NO and ONOO^− were performed with tandem electrochemical nanosensors combined into one working unit with a total diameter of 200-400 nm. […]
The amperometric method (with a response time of 0.1 ms) provides a quantitative signal (current) that is directly proportional to changes (from basal levels) in NO or ONOO^− concentration. […] Basal NO or ONOO^− levels were measured by differential pulse voltammetry in separate experiments. […]

Structure (SMILES) | reduction of sdLDL oxidation [1] [%] | antioxidant effect on glucose-induced LOOH formation ([2]; 1.0 μM, glucose 200 mg/dL, 96 hours) | effect on LOOH formation / lipid peroxidation ([2]; 72- and 96-hour time points, 1:30 drug-to-phospholipid mole ratio, glucose 200 mg/dL) | effect on membrane LOOH formation ([2]; tested at 1.0 and 5.0 μM, glucose-treated) | LOOH formation compared to vehicle, glucose, glucose + EA, glucose + ETE [3] | NO/ONOO^− Ratio [4] | NO release ([4]; calcium ionophore) | NO/ONOO^− Ratio ([4]; listed as niacin)
CC/C=C\C/C=C\C/C=C\C/C=C\C/C=C\CCCC(=O)O [EPA, cis-5,8,11,14,17-eicosapentaenoic acid] | > 90 | potent antioxidant effects | significantly inhibited LOOH formation | inhibit membrane LOOH formation in a dose-dependent manner | significantly less LOOH formation | – | – | –
O=C(O)c1cccnc1 [Niacin, nicotinic acid] | – | – | – | – | – | 1.45 ± 0.14 | 346 ± 17 | 1.45±0.14
